Data reported in US20240350475A1, “TR[…] CARD[…] BY SARS-COV-2 SPIKE PROTEIN UNDER OBESITY” (priority 2023, published 2024).
Entries after “also recorded” stand apart in the source; their conditions may differ.

Key:
[1] = system: HEK_Spike cells; experiment: Palmitic acid (PA)-induced lipotoxicity assay in Spike cells, with or without inhibitors (PI/Hoechst cell viability); type: cell-based, Human; settings: for PA-induced Spike protein-exaggerated lipotoxicity (necrosis, cell viability): Spike cells, then 750 M PA 24 h, DMEM 5% FBS
Protocol: (§1) The HEK293, HEK_pcDNA, and HEK_Spike cells were cultured in a 96-well plate and reached to 80% confluence on the next day before treatment. The cells were kept in DMEM medium with 5% FBS during the entire treatment procedure. The cells were treated with PA (free BSA) in various concentrations from 250 to 1000 M for 24, 48, or 72 h.
(§2) For treatment control groups, the cells were treated by the same concentrations of BSA in parallel. For the inhibitory assay, the cells were pre-incubated by autophagic inhibitors (125 M trigonelline (TRG), or 10 M Wortmannin), or a ferropotosis inhibitor (ferrostatin, 2 M), or an […] (necrostatin-1, 10 M) in DMEM medium with 5% FBS for 2 h, followed by 750 M PA treatment for 24 h. The cells were then co-stained by Propidium Iodide (PI) and Hoechst 33342 NucBlue Live Cell Stain dye (ThermoFisher) to show the dead and live cells. The dyes were excited at 535 nm and 405 nm, respectively. TRG may be provided over a range of concentration such as 50 to 300 M, 60 to 290, 70 to 280, 80 to 270, 90 to 260, 100 to 250, 110 to 240, 120 to 230, 130 to 220, 140 to 210, 150 to 200, 160 to 190, 170 to 180, as well as sub ranges such as from 100M to 200 M, 125M to 175 M, etc., also include individual concentrations, such as 125M, 150 M, 175M, etc. Wortmannin may be provided over a range of concentrations from 5 to 100, 10 to 90, 15 to 80, 20 to 70, 25 to 60, 30 to 50 M, etc., including subranges and individual concentrations within these ranges.
Images were acquired and cell viability analyses were performed using an ImagXpress Pico Automated system.

[2] = system: HEK293 and HEK_pcDNA cells; experiment: Palmitic acid (PA)-induced lipotoxicity assay in control cells; type: cell-based, Human; settings: PA overload; HEK293 (mock) and pcDNA cells; DMEM 5% FBS
Protocol: as §1
as §2, with “Wortmannin may be provided over a range of concentrations from 5 to 100, 10 to 90, 15 to 80, 20 to 70, 25 to 60, 30 to 50 M, etc., including subranges and individual concentrations within these ranges.” left out

[3] = system: Human dermal microvascular ECs (hDMVECs); type: cell-based
[4] = system: H9C2 cells; experiment: Spike-exosome induced mitochondrial morphology change in H9C2 cells (MitoTracker, confocal); type: cell-based; settings: spike-exo 150 μg exosomal proteins in 1 ml medium plus TRG 125 μM, 5 days
[5] = system: H9C2 cells

CCCCCCCCCCCCCCCC(=O)O [PA, Palmitic acid]
effect of PA on the Spike cells ([1]; 500 M and 250 M PA, after 72 h treatment): modest or mild effect | PA-induced cell death (lipotoxicity) ([1]; Spike cells versus mock and pcDNA cells, PA 750 or 1000 M, 24 to 72 h): significantly augmented | PA-induced cell death (lipotoxicity) [2]: induced cell death

C[n+]1cccc(C(=O)[O-])c1 [TRG, Trigonelline]
PA-induced Spike protein-exaggerated lipotoxicity (necrosis, cell viability) ([1]; pre-incubated with 125 M TRG 2 h): can attenuate; also recorded: can be suppressed; also recorded: significantly mitigated | PA-induced Spike protein-exaggerated lipotoxicity (necrosis, cell viability) ([1]; pre-incubated with 125 M TRG 2 h, listed as trigonelline): could be attenuated | cellular ROS levels [3]: attenuated | density of mitochondria decreased by Spike-EVs plus LDL-c [3]: could restore | diameter of mitochondria decreased by Spike-EVs plus LDL-c [3]: could restore | spike-exo induced mitochondrial fusion (mitochondrial morphology) [4]: can reverse | PA-induced Spike protein-exaggerated lipotoxicity (cell viability) [5]: could be reversed

CCOC(=O)c1ccc(NC2CCCCC2)c(N)c1 [ferrostatin]
PA-induced Spike protein-exaggerated lipotoxicity (necrosis, cell viability) ([1]; pre-incubated with ferrostatin 2 M 2 h): significantly mitigated | PA-induced Spike protein-exaggerated lipotoxicity (necrosis, cell viability) ([1]; pre-incubated with ferrostatin 2 M 2 h, listed as ferrostatin 1): can be suppressed
